From patent US20180042882A1, “C16:1n7-PALMITOLEATE AND DERIVATIVES THEREOF FOR TREATING OBESITY, PROMOTING WEIGHT LOSS, AND SUPPORTING WEIGHT MANAGEMENT” (Tersus Life Sciences, LLC, priority 2015, published 2018)

Assays:
bovine adipocytes [1] = assay: Fatty acid composition of bovine adipocyte cultures with exogenous palmitoleic acid (GLC); type: cell-based; details: P<0.05
Text: (§1) Bovine adipocyte cultures were used to determine if addition of exogenous palmitoleic acid (C16:1n7) altered lipogenesis in vitro (Burns et al., 2012a). Adipocytes were harvested from the bovine cultures on day 6 and day 12 and analyzed using GLC and qPCR. […] In contrast, increasing concentrations of palmitoleic acid led to a decrease in palmitic acid (C16:0), stearic acid (C18:0), and oleic acid (C18:1) levels (P<0.05). FIG. 2 illustrates de novo lipogenesis and β-oxidation in an adipocyte after exogenous palmitoleic acid addition.
(§2) The desaturation ratio of C18:1 cis-9/C18:0 decreased (P<0.05) in response to increasing concentrations of palmitoleic acid, which was consistent with the observed decrease in SCD-1 mRNA expression.

ELOVL6 = assay: qPCR mRNA expression in bovine adipocyte cultures; type: cell-based; details: compared to untreated control cells; P<0.05
Text: as §1, §2

FASN = assay: qPCR mRNA expression in bovine adipocyte cultures; type: cell-based; details: compared to untreated control cells; P<0.05
Text: as §1, §2

SCD-1 = assay: qPCR mRNA expression in bovine adipocyte cultures; type: cell-based; details: compared to untreated control cells; P<0.05
Text: as §1, §2

bovine adipocytes [2] = assay: Rate of lipogenesis with [1-13C]acetate in bovine adipocytes; type: cell-based; details: 2.5 mM [1-13C]acetate on day 6; compared to controls
Text: as §2

[3] = test system: Acyl-CoA dehydrogenase, long chain (ACADL); assay: Expression of fatty acid oxidation genes in bovine adipocytes; type: cell-based; details: normalized to EIF3K and UXT; P≦0.07
Text: (§3) The effect of palmitoleic acid supplementation on fatty acid oxidation in bovine adipocytes (see Kadegowda et al., 2011a) was examined by measuring the expression levels of Acyl-Coenzyme A oxidase 2 (ACOX2), Acyl-CoA dehydrogenase, long chain (ACADL), Phytanoyl-CoA 2-hydroxylase (PHYH), Caveolini (CAV1) and Adipose differentiation-related protein (ADEP). The geometric mean of Eukaryotic translation initiation factor 3, subunit k (EIF3K) and Ubiquitously expressed transcript (UXT) was used for normalization.

[4] = test system: Phytanoyl-CoA 2-hydroxylase (PHYH); assay: as above; type: cell-based; details: normalized to EIF3K and UXT
Text: as §3

bovine adipocytes [5] = assay: Fatty acid levels and desaturation (13C18:0, GLC-MS) in fatty acid supplemented bovine adipocytes; type: cell-based; details: P<0.05
Protocol: In addition, cells were incubated with ^13C2 and ^13C18:0 on day 6 to estimate lipogenic and desaturation rates using GLC-MS.

CTP-1 = assay: Enzymes involved in β-oxidation after exogenous palmitoleic acid; type: cell-based, bovine; details: addition of exogenous palmitoleic acid
Text: As such, C16:1n7-palmitoleate, derivatives thereof, pharmaceutically acceptable salts thereof, or a combination thereof, are useful in methods for reducing adipocyte hypertrophy and excess adipose tissue deposition.

[6] = Infusion of 13C16:1n7 in lambs, uptake and utilization; type: in vivo; details: 5 mg/kg level, intravenous infusion
Protocol: This level of palmitoleic acid supplementation was selected based on previous experiments where lambs were infused with varying levels (0, 2, or 5 mg/kg) of ^13C16:1n7 to assess uptake and utilization in adipose tissues. […] This 5 mg/kg level is based on intravenous infusion levels and thus is adjusted for estimated ruminal bypass and intestinal absorption rates for dietary monounsaturated fatty acids for this oral feeding study.

[7] = increasing concentrations of palmitoleic acid (50, 150 and 300 μM), day 6 and day 12
[8] = increasing concentrations of palmitoleic acid

Compound: CCCCCC/C=C\CCCCCCCC(=O)O [palmitoleic acid]
- desaturation ratio of C18:1 cis-9/C18:0 (bovine adipocytes [1]; in response to increasing concentrations of palmitoleic acid): decreased
- cis-11 vaccenic acid (C18:1c11) levels in adipocytes (bovine adipocytes [1]; [7]): linear increase
- cis-13 eicosenoic acid (C20:1c13) levels in adipocytes (bovine adipocytes [1]; [7]): linear increase
- total fatty acid levels in adipocytes (bovine adipocytes [1]; [7]): linear increase
- Palmitoleic acid levels in adipocytes (bovine adipocytes [1]; increasing concentrations of palmitoleic acid (50, 150 and 300 μM), harvested day 6 and day 12): linear increase
- oleic acid (C18:1) levels in adipocytes (bovine adipocytes [1]; [8]): decrease
- palmitic acid (C16:0) levels in adipocytes (bovine adipocytes [1]; [8]): decrease
- stearic acid (C18:0) levels in adipocytes (bovine adipocytes [1]; [8]): decrease
- ELOVL6 mRNA expression levels (ELOVL6): reduction
- FASN mRNA expression levels (FASN): reduction
- SCD-1 mRNA expression levels (SCD-1): reduction
- rate of lipogenesis (bovine adipocytes [2]): lower rate of lipogenesis
- increase in ACADL expression [3]: 2.36 fold
- increase in PHYH expression [4]: 95.5 fold
- 13C18:1 cis-9 levels (bovine adipocytes [5]; after 12 h of 13C18:0 incubation, compared with all other treatments): lower
- C18:1 cis-9/C18:0 ratio (bovine adipocytes [5]; compared with all other treatments): lower
- C16: levels in supplemented cells (bovine adipocytes [5]; compared with control cells): elevated
- C18:1 cis-11 levels in supplemented cells (bovine adipocytes [5]; compared with control cells): elevated
- C20:1 cis-13 levels in supplemented cells (bovine adipocytes [5]; compared with control cells): elevated
- CTP-1 (enzyme involved in β-oxidation) regulation (CTP-1): upregulates
- blood glucose levels ([6]; compared to control): altered
- concentrations of 13C16:1n7 in serum ([6]; lambs infused with 0, 2, or 5 mg/kg): greatest concentrations
